Measurements: patent publication US20250346550A1, “METHODS OF MODULATING ENDONUCLEASE G USING RESVERATROL AND ITS DERIVATIVES” (THE REGENTS OF THE UNIVERSITY OF COLORADO A BODY CORPORATE, priority 2022, published 2025)

What was measured:
Assay type in all cases: in vivo, C. elegans
[1] = test system: cps-6(tm3222); baIn11 animals; experiment: DA neuronal death in cps-6(tm3222); baIn11 animals; settings: 100 μM, adult day 2
Text: (§1) FIG. 8. […] In each experiment, 300 animals were scored to determine the percentage of animals losing at least one dopaminergic neuron in the head. Data are mean±s.e.m. *P<0.05; ***P<0.001, two-sided, unpaired t-test.
(§2) In addition to PME and apoptosis, EndoG was previously shown to play an important role in mediating dopaminergic (DA) neuronal death induced by expression of human α-synuclein, which is widely considered to be a major proponent of Parkinson's disease. However, the mechanism by which EndoG mediates α-synuclein-induced neurodegeneration is unclear. In a C. elegans α-synuclein-based Parkinson's Disease model, co-expression of GFP and human α-synuclein in C. elegans dopaminergic neurons under the control of the promoter of the dat-1 gene, which encodes a dopamine transporter, from an integrated transgene baIn11 (Pdat-1::gfp/Pdat-1::α-synuclein) caused DA neuronal death in 30% of adult baIn11 animals (FIG. 8a). The cps-6(tm3222) mutation blocked DA neuronal death in adult baIn11 animals (FIG. 8a), confirming that CPS-6 is important for α-synuclein-induced DA neuronal death.

[2] = test system: LGG-1 autophagosome enclosure of MTR-stained paternal mitochondria in zygotes; experiment: autophagosome formation on paternal mitochondria (SIM, anti-LGG-1); settings: males pretreated with 50 μM; for isolated paternal mitochondria: mock 16%; for paternal mitochondria fully enclosed by autophagosomes: mock 49%
Procedure: FIG. 4. Resveratrol isomers affect autophagosome formation on paternal mitochondria. a-f, Analysis of enclosure of MTR-stained paternal mitochondria by LGG-1 autophagosomes. Zygotes from the indicated crosses with MTR-stained N2 males pretreated with 0.25% ethanol (Mock)(a,b), 50 μM trans-resveratrol (c,d), or 50 μM cis-resveratrol (e,f) were labeled with an antibody to LGG-1. Images were acquired with a Nikon SIM microscope. Dashed rectangles highlight the areas enlarged and shown below ([…]). Scale bars, 2 μm (a,c,e), 0.5 μm (b,d,f). g, Quantification of four types of paternal mitochondria in zygotes that were fully enclosed, partially enclosed, and not enclosed (isolated) by the LGG-1 autophagosomes and that had initiating phagophore, respectively. The number of MTR-stained paternal mitochondria scored in each experiment was shown below the pie chart.
CPS-6 plays a key role in promoting internal breakdown of paternal mitochondria and rapid autophagosome formation on damaged paternal mitochondria following fertilization, which leads to their subsequent degradation by autophagy. We tested if resveratrol isomers affect autophagosome formation on paternal mitochondria using superresolution structured illumination microscopy (SIM). In zygotes from mating of MTR-stained and mock-treated N2 males with unstained N2 hermaphrodites, close to one half (49%) of MTR-stained paternal mitochondria were fully enclosed by autophagosomes labeled by anti-LGG-1 monoclonal antibody (FIG. 4a, b and g). The remaining paternal mitochondria either were partially enclosed by autophagosomes (23%), or had adjacent autophagosome membrane that could initiate the elongation process along the paternal mitochondrion (12%; initiating phagophore), or were isolated (16%) with no nearby autophagosome or phagophore (FIG. 4a, b and g). In zygotes from mating of MTR-stained and trans-resveratrol-treated N2 males with N2 hermaphrodites, autophagosome formation on paternal mitochondria increased dramatically, with 75% of paternal mitochondria fully enclosed and 12% of paternal mitochondria partially enclosed by autophagosomes (FIG. 4c, d and g). […] On the other hand, in zygotes from mating between unstained N2 hermaphrodites and MTR-stained and cis-resveratrol-treated N2 males, autophagosome formation on paternal mitochondria decreased substantially.

[3] = test system: α-synuclein-induced dopaminergic neuronal death in baIn11 animals; experiment: α-synuclein-based Parkinson's Disease model, DA neuronal death; settings: 100 μM; for effect on α-synuclein-induced DA neuronal death: adult day 2 baIn11 animals vs 0.25% ethanol
Text: as §1
FIG. 13. […] In each experiment, 300 animals were scored to determine the percentage of animals losing at least one of the six dopaminergic neurons in the head. Data are mean±s.e.m. ****P<0.001, two-sided, unpaired t-test.
as §2

[4] = test system: paternal uaDf5 mtDNA in cross-fertilized embryos; experiment: PCR-based PME assay (paternal uaDf5 mtDNA); settings: 50 μM; mock: detected up to 64-cell stage embryos
Text: FIG. 7. Effects of different dosages of resveratrol isomers on PME. a, b, The effects of different dosages of cis-resveratrol (a) and trans-resveratrol (b) on PME. The numbers of MTR-stained paternal mitochondrial clusters in 64-cell embryos (a) or 16-cell embryos (b) from mating of MTR-stained N2 males with N2 hermaphrodites in the presence of the indicated concentrations of resveratrol isomers were scored. […] A single cross-fertilized embryo or larva (MTR- or GFP-positive) at the indicated stage was analyzed by PCR. uaDf5/+ and N2 hermaphrodites were controls.
We confirmed these findings using a polymerase chain reaction (PCR)-based PME assay, which monitors the fate of paternal mtDNA in fertilized eggs from males carrying a 3053 bp mtDNA deletion allele (uaDf5) in a heteroplasmic mixture with wild-type mtDNA (FIG. 7c). In mating between N2 hermaphrodites and uaDf5/+ males treated with the mock control, PCR products derived specifically from paternal uaDf5 mtDNA were detected only in early stage cross-fertilized embryos, up to 64-cell stage embryos (FIG. 2d).

[5] = test system: PME defect of lgg-1(bp523) embryos (autophagy pathway); experiment: PME microscopy assay in lgg-1(bp523) crosses; settings: 50 μM, 64-cell embryos (FIG. 3c)
Procedure: The numbers of MTR-stained paternal mitochondrial clusters in embryos at 64-cell (a) or 16-cell (b) stage from the indicated crosses were scored. N2 males or hermaphrodites were pretreated with 0.25% ethanol (Mock), 50 μM cis-resveratrol (a), or 50 μM trans-resveratrol (b) as indicated before mating. c-g, Quantification of MTR-stained paternal mitochondrial clusters in 64-cell embryos from the indicated crosses treated with 0.25% ethanol (Mock), 50 μM cis-resveratrol, and 50 μM trans-resveratrol, respectively. Alleles used are lgg-1(bp523), cps-6(tm3222) and rad-23(tm2595).
The numbers of MTR-stained paternal mitochondrial clusters were scored as in FIG. 1a. cps-6(tm3222) and lgg-1(bp523) alleles were used in the assays. Data are mean±s.e.m. n=20 embryos (b) and 15 embryos (c) in each experiment. **P<0.01; ***P<0.001; n.s., not significant, two-sided, unpaired t-test.
To investigate how these six compounds might affect PME, the present inventors performed chemical genetic analysis to analyze the PME pathways that might be affected by the compounds. The present inventors first examined whether they might affect the paternal PME pathway mediated by the mitochondrial endonuclease CPS-6, whose activity is inhibited by oxidation and protected by reducing agents.

Row | Structure (SMILES) | dopaminergic neuronal loss in cps-6(tm3222); baIn11 animals [1] | isolated paternal mitochondria [2] [%] | paternal mitochondria partially enclosed by autophagosomes ([2]; mock 23%) [%] | paternal mitochondria fully enclosed by autophagosomes [2] [%] | adult baIn11 animals with neurodegeneration (DA neuronal loss) ([3]; adult day 2, mock 30%) [%] | effect on α-synuclein-induced DA neuronal death [3] | fate of paternal uaDf5 mtDNA [4] | effect on PME defects of the lgg-1(bp523) mutant [5] | adult baIn11 animals protected from neurodegeneration ([3]; adult day 2) [%]
1 | Oc1ccc(/C=C/c2cc(O)cc(O)c2)cc1 [trans-resveratrol, 3,5,4′-trihydroxy-trans-stilbene] | did not cause any dopaminergic neuronal loss | 7 | 12 | 75 | 40 | enhanced dopaminergic neuron loss | accelerated degradation of uaDf5 mtDNA | suppressed | 
2 | Oc1ccc(/C=C\c2cc(O)cc(O)c2)cc1 [cis-resveratrol] | did not cause any dopaminergic neuronal loss | 31 |  | 35 |  | strongly inhibited DA neuronal death | persistence of uaDf5 mtDNA to the late 4-fold embryos | enhanced | 94
